In brackets after ≈: the same amount, converted by molar mass.
What was measured:
[1] = Equilibrium solubility, shake flask method (European Pharmacopeia); assay type: physicochemical; settings: for Equilibrium solubility / solubility thermodynamic at 24 h: shaking at 400 rpm for 24 hours; for solubility thermodynamic at 24 h: aqueous buffer, 37 °C, thermodynamic from solid
Experimental: As used herein, the term "equilibrium solubility" refers to the maximum solubility of apixaban in various aqueous media of buffers of pH 1.2, 4.5 and 6.8 at 37 °C after 24 hours. The shaking is carried out at 400 rpm.
(§1) Equilibrium solubility of crystalline polymorphic Form A of apixaban and references apixaban Form N-1 was performed in various aqueous media of buffers of pH 1.2, 4.5 and 6.8 at 37°C. The solubility was measured using "shake flask" method described in European Pharmacopeia. The shaking was carried out at 400 RMP for 24 hours. Table 2: Equilibrium solubility of crystalline polymorphic Form A of apixaban and reference apixaban Form N-1 in various aqueous media of buffers.
as §1, with “rmp” for “RMP”

[2] = Physical stability of the crystalline form on storage at room atmosphere conditions; assay type: physicochemical; settings: after 8 months stored at room atmosphere conditions
From the text: For a pharmaceutical use a solubility of the form which active pharmaceutical ingredient forms is a criterion of exceptional importance under certain circumstances depending on the choice of formulation or the choice of manufacturing process. For drugs which are to be taken orally it is, in general, very important that active pharmaceutical ingredients are sufficiently soluble and bioavailable. Apixaban is such a drug, i.e. characterized by a low solubility in aqueous media. Unexpectedly, improved solubility of crystalline polymorph Form A of apixaban contributes to sufficient bioavailability of apixaban containing drugs. At the same time, a high physical stability of crystalline Form A is preserved.

Compound | Equilibrium solubility ([1]; aqueous buffer pH 1.2, 37°C) [µg/mL] | Equilibrium solubility ([1]; aqueous buffer pH 4.5, 37°C) [µg/mL] | Equilibrium solubility ([1]; aqueous buffer pH 6.8, 37°C) [µg/mL] | comparison of equilibrium solubility with reference polymorph Form N-1 ([1]; aqueous buffers pH 1.2, 4.5 and 6.8, 37°C (Table 2)) | physical stability (crystalline structure) [2] | solubility thermodynamic at 24 h ([1]; pH 1.2, simulated gastric fluid, aqueous buffer pH 1.2, 37°C) [µg/mL] | solubility thermodynamic at 24 h ([1]; pH 4.5, aqueous buffer, aqueous buffer pH 4.5, 37°C) [µg/mL]
COc1ccc(-n2nc(C(N)=O)c3c2C(=O)N(c2ccc(N4CCCCC4=O)cc2)CC3)cc1 [Form A, 1-(4-methoxyphenyl)-7-oxo-6-(4-(2-oxopiperidin-1-yl)phenyl)-4,5,6,7-tetrahydro-1H-pyrazolo[3,4-c]pyridine-3-carboxamide] | 58 | 74 | 72 | higher solubility | the crystalline structure remains unchanged |  | 
COc1ccc(-n2nc(C(N)=O)c3c2C(=O)N(c2ccc(N4CCCCC4=O)cc2)CC3)cc1 [Form N-1, 1-(4-methoxyphenyl)-7-oxo-6-(4-(2-oxopiperidin-1-yl)phenyl)-4,5,6,7-tetrahydro-1H-pyrazolo[3,4-c]pyridine-3-carboxamide, reference compound] |  |  | 30 |  |  | 44 (≈ 95.8 µM) | 53 (≈ 115 µM)
